Data reported in the NIST ThermoML archive (doi:10.1016/j.jct.2011.01.014).

Test: xn = mol fraction of the nth substance listed
Conditions: 101 kPa, Liquid; for mass density: Vibrating tube method; for speed of sound: sound velocity cell

CC(=O)[O-].[NH3+]CCO [2-hydroxyethylammonium acetate] + O
Conditions	mass density, 288.15 K [kg/m3]	mass density, 290.65 K [kg/m3]	mass density, 293.15 K [kg/m3]	mass density, 295.65 K [kg/m3]	speed of sound, 288.15 K [m/s]	speed of sound, 290.65 K [m/s]	speed of sound, 293.15 K [m/s]	speed of sound, 295.65 K [m/s]
x1 = 0.051	1055.26	1054.36	1053.41	1052.44	1676.3	1679	1681.4	1683.6
x1 = 0.1019	1085.14	1084.06	1082.96	1081.85	1768.9	1768.6	1768.1	1767.5
x1 = 0.1963	1116.52	1115.24	1113.95	1112.66	1839	1836.1	1833.1	1830.1
x1 = 0.2894	1131.28	1129.93	1128.59	1127.24	1851.1	1847.3	1843.4	1839.5
x1 = 0.3959	1140.75	1139.38	1138.01	1136.62	1843.1	1838.7	1834.2	1829.7
x1 = 0.5016	1145.83	1144.47	1143.09	1141.71	1833.6	1828.7	1823.9	1819.1
x1 = 0.5821	1148.34	1146.91	1145.54	1144.18	1831.6	1826.5	1821.6	–
x1 = 0.6837	1150.31	1148.88	1147.45	1146.02	1824.3	1818.9	1813.6	–
x1 = 0.7763	1152.17	1150.75	1149.34	1147.92	1824.4	1818.5	1812.9	–
x1 = 0.8761	1153.59	1152.16	1150.75	1149.33	1817.1	1810.7	1804.6	–
x1 = 0.9137	1153.92	1152.5	1151.09	1149.67	1819.5	1812.8	1806.5	–
x1 = 1	1154.7	1153.28	1151.87	1150.45	1817.2	1810	1803.2	–
